Laboratory results published in US9212182B2, “Bicyclic sulfonamide compounds as sodium channel inhibitors” (AMGEN INC., priority 2013, dated 2015).

target: Nav 1.7 (Homo sapiens (Human), UniProt Q15858); experiment: in-vitro Nav 1.7 PX (IC50); type: cell-based; details: not given
Sequence (Q15858 whole entry): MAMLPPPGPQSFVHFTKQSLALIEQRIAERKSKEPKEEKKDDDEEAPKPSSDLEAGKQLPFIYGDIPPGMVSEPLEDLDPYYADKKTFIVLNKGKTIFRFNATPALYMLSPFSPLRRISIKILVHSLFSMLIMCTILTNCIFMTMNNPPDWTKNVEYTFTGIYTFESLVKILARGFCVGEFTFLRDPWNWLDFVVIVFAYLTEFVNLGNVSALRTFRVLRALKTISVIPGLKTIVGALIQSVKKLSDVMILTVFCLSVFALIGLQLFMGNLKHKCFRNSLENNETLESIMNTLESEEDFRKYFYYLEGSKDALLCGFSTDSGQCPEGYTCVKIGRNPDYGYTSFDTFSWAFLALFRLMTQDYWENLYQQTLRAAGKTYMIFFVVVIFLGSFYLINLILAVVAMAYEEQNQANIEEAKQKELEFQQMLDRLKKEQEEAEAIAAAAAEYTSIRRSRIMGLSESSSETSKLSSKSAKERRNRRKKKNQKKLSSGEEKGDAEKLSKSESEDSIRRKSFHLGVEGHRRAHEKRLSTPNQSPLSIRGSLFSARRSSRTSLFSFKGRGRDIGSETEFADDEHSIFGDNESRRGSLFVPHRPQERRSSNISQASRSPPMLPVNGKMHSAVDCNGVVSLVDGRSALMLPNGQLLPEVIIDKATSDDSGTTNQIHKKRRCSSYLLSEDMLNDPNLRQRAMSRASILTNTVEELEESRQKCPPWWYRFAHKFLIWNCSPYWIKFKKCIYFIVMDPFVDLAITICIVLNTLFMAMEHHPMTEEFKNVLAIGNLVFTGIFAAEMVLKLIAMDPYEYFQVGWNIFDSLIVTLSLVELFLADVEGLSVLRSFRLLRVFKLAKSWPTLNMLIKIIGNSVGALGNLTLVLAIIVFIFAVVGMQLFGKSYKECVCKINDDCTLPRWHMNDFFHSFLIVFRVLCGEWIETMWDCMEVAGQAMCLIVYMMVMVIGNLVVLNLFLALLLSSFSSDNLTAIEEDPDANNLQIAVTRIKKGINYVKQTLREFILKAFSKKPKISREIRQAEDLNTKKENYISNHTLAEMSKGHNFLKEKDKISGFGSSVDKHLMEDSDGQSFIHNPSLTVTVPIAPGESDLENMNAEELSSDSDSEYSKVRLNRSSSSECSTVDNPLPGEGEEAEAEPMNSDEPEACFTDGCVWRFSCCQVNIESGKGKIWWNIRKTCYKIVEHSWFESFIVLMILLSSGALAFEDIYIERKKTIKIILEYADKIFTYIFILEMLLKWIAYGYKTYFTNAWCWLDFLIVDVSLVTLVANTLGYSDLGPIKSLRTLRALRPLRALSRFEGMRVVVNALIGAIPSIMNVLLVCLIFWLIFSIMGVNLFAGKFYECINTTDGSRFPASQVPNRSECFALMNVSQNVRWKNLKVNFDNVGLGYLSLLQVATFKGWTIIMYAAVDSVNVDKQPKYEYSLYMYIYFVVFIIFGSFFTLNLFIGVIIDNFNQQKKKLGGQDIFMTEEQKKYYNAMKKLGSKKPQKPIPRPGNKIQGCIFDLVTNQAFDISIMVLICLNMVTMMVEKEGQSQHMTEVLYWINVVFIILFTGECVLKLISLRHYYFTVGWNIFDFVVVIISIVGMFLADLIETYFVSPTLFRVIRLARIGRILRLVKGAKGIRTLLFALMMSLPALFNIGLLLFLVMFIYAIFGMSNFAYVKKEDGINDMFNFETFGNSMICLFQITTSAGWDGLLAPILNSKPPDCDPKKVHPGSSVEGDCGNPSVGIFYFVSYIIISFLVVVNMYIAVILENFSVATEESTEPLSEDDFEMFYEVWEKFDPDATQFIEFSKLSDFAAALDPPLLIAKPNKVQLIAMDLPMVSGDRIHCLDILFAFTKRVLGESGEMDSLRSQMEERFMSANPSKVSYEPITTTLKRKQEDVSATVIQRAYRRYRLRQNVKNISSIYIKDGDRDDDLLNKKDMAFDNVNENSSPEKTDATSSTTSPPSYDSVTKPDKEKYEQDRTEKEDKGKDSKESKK

Row | IC50 [nM] | Structure (SMILES)
1 | 3890 | COc1cc(-c2cccc(Cl)c2)c(C)cc1-n1c(=O)ccc2cc(S(=O)(=O)Nc3ncccn3)ccc21 (atropisomer, axis not shown; (M)) [Example 322, (M)-1-(3′-chloro-5-methoxy-2-methyl-4-biphenylyl)-2-oxo-N-2-pyrimidinyl-1,2-dihydro-6-quinolinesulfonamide]
2 | 1590 | COc1cc(-c2cc(F)cc(Cl)c2)ccc1-n1c(=O)ccc2cc(S(=O)(=O)Nc3ccon3)ccc21 (atropisomer, axis not shown; (M)) [Example 429, (M)-1-(3′-chloro-5′-fluoro-3-methoxy-4-biphenylyl)-N-3-isoxazolyl-2-oxo-1,2-dihydro-6-quinolinesulfonamide]
3 | 10 | COc1cc(-c2cc(F)cc(Cl)c2)c(C#N)cc1-n1c(=O)ccc2cc(S(=O)(=O)Nc3ccon3)ccc21 (atropisomer, axis not shown; (P)) [Example 433, (P)-1-(3′-chloro-2-cyano-5′-fluoro-5-methoxy-4-biphenylyl)-N-3-isoxazolyl-2-oxo-1,2-dihydro-6-quinolinesulfonamide]
4 | 79 | COc1cc(C#CC2CCCC2)c(F)cc1-n1c(=O)cnc2cc(S(=O)(=O)Nc3ccon3)ccc21 [Example 1142, 1-(4-(cyclopentylethynyl)-5-fluoro-2-methoxyphenyl)-N-3-isoxazolyl-2-oxo-1,2-dihydro-6-quinoxalinesulfonamide]
5 | 146 | COc1cc(-c2ccc(-n3c(=O)cnc4cc(S(=O)(=O)Nc5ccon5)ccc43)c(OC)c2)ccc1C [Example 1197, 1-(3,3′-dimethoxy-4′-methyl-4-biphenylyl)-N-3-isoxazolyl-2-oxo-1,2-dihydro-6-quinoxalinesulfonamide]
6 | 10600 | COc1cc(Br)c(F)cc1-n1c(=O)ccc2cc(S(=O)(=O)Nc3cc(OC4CCC4)ncn3)ccc21 (atropisomer, axis not shown; (P)) [Example 1188, (P)-1-(4-bromo-5-fluoro-2-methoxyphenyl)-N-(6-(cyclobutyloxy)-4-pyrimidinyl)-2-oxo-1,2-dihydro-6-quinolinesulfonamide]

same assay, conditions: in-vitro Nav 1.7 PX data

Row | Structure (SMILES) | IC50 [nM]
7 | COc1cc(-c2ccc(F)c(C)c2)c(F)cc1-n1c(=O)ccc2cc(S(=O)(=O)Nc3ncc(F)cn3)ccc21 [Example 942, 1-(2,4′-difluoro-5-methoxy-3′-methyl-4-biphenylyl)-N-(5-fluoro-2-pyrimidinyl)-2-oxo-1,2-dihydro-6-quinolinesulfonamide] | 31
8 | COc1cc(-c2ccc(C(F)(F)F)cc2)c(F)cc1-n1c(=O)ccc2cc(S(=O)(=O)Nc3ncccn3)ccc21 [Example 797, 1-(2-fluoro-5-methoxy-4′-(trifluoromethyl)-4-biphenylyl)-2-oxo-N-2-pyrimidinyl-1,2-dihydro-6-quinolinesulfonamide] | 43
9 | COc1cc(-c2ccc(Cl)c(C)c2)c(F)cc1-n1c(=O)ccc2cc(S(=O)(=O)Nc3ccc(F)cn3)ccc21 (atropisomer, axis not shown; (P)) [Example 693, (P)-1-(4′-chloro-2-fluoro-5-methoxy-3′-methyl-4-biphenylyl)-N-(5-fluoro-2-pyridinyl)-2-oxo-1,2-dihydro-6-quinolinesulfonamide] | 186
10 | COc1cc(F)cc(-c2ccc(-n3c(=O)ccc4cc(S(=O)(=O)Nc5ncco5)ccc43)c(OC)c2)c1 [Example 1005, 1-(3′-fluoro-3,5′-dimethoxy-4-biphenylyl)-N-1,3-oxazol-2-yl-2-oxo-1,2-dihydro-6-quinolinesulfonamide] | 268
11 | COc1cc(-c2cccc(C(F)(F)F)c2)ccc1-n1c(=O)ccc2cc(S(=O)(=O)Nc3ncon3)ccc21 [Example 919, 1-(3-methoxy-3′-(trifluoromethyl)-4-biphenylyl)-N-1,2,4-oxadiazol-3-yl-2-oxo-1,2-dihydro-6-quinolinesulfonamide] | 22
12 | COc1ccc(-c2ccc(Cl)c(C)c2)cc1-n1c(=O)ccc2cc(S(=O)(=O)Nc3ccon3)ccc21 [Example 846, 1-(4′-chloro-4-methoxy-3′-methyl-3-biphenylyl)-N-3-isoxazolyl-2-oxo-1,2-dihydro-6-quinolinesulfonamide] | 25
13 | COc1cc(-c2ccc(Cl)cc2)ccc1-n1c(=O)ccc2cc(S(=O)(=O)Nc3cc(C)ncn3)ccc21 [Example 767, 1-(4′-chloro-3-methoxy-4-biphenylyl)-N-(6-methyl-4-pyrimidinyl)-2-oxo-1,2-dihydro-6-quinolinesulfonamide] | 54
14 | COc1cccc(-c2ccc(OC)c(-n3c(=O)ccc4cc(S(=O)(=O)Nc5ccon5)ccc43)c2)c1 [Example 847, 1-(3′,4-dimethoxy-3-biphenylyl)-N-3-isoxazolyl-2-oxo-1,2-dihydro-6-quinolinesulfonamide] | 403
15 | COc1nc(-c2cc(F)cc(Cl)c2)c(Cl)cc1-n1c(=O)ccc2cc(S(=O)(=O)Nc3ccon3)ccc21 [Example 1070, 1-(5-chloro-6-(3-chloro-5-fluorophenyl)-2-methoxy-3-pyridinyl)-N-3-isoxazolyl-2-oxo-1,2-dihydro-6-quinolinesulfonamide] | 12
16 | COc1cc(-c2ccc(F)c(C)c2)c(F)cc1-n1c(=O)ccc2cc(S(=O)(=O)Nc3cc(C)ncn3)ccc21 [Example 945, 1-(2,4′-difluoro-5-methoxy-3′-methyl-4-biphenylyl)-N-(6-methyl-4-pyrimidinyl)-2-oxo-1,2-dihydro-6-quinolinesulfonamide] | 34
17 | COc1cccc(-c2nc(OC)c(-n3c(=O)ccc4cc(S(=O)(=O)Nc5ccon5)ccc43)cc2Cl)c1 [Example 1093, 1-(5-chloro-2-methoxy-6-(3-methoxyphenyl)-3-pyridinyl)-N-3-isoxazolyl-2-oxo-1,2-dihydro-6-quinolinesulfonamide] | 4940
18 | COc1ccc(-c2cc(F)cc(Cl)c2)cc1-n1c(=O)ccc2cc(S(=O)(=O)Nc3ccncn3)ccc21 (atropisomer, axis not shown; (M)) [Example 612, (M)-1-(3′-chloro-5′-fluoro-4-methoxy-3-biphenylyl)-2-oxo-N-4-pyrimidinyl-1,2-dihydro-6-quinolinesulfonamide] | 355
19 | COc1nc(-c2cccc(C#N)c2)c(Cl)cc1-n1c(=O)ccc2cc(S(=O)(=O)Nc3ccon3)ccc21 [Example 1091, 1-(5-chloro-6-(3-cyanophenyl)-2-methoxy-3-pyridinyl)-N-3-isoxazolyl-2-oxo-1,2-dihydro-6-quinolinesulfonamide] | 20300
20 | COc1cc(Cl)cc(-c2ccc(-n3c(=O)ccc4cc(S(=O)(=O)Nc5ncccn5)ccc43)c(OC)c2)c1 [Example 923, 1-(3′-chloro-3,5′-dimethoxy-4-biphenylyl)-2-oxo-N-2-pyrimidinyl-1,2-dihydro-6-quinolinesulfonamide] | 12

Further lines, results first:

Row | IC50 [nM] | Structure (SMILES)
21 | 25 | CCOc1cccc(-c2cc(OC)c(-n3c(=O)ccc4cc(S(=O)(=O)Nc5ccon5)ccc43)cc2F)c1 [Example 727, 1-(3′-ethoxy-2-fluoro-5-methoxy-4-biphenylyl)-N-3-isoxazolyl-2-oxo-1,2-dihydro-6-quinolinesulfonamide]
22 | 53 | COc1cc(-c2ccc(F)c(F)c2)ccc1-n1c(=O)ccc2cc(S(=O)(=O)Nc3ccon3)ccc21 [Example 1014, 1-(3′,4′-difluoro-3-methoxy-4-biphenylyl)-N-3-isoxazolyl-2-oxo-1,2-dihydro-6-quinolinesulfonamide]
23 | 709 | COc1cc(-c2cccc(F)c2)ncc1-n1c(=O)ccc2cc(S(=O)(=O)Nc3ccon3)ccc21 (atropisomer, axis not shown; (P)) [Example 602, (P)-1-(6-(3-fluorophenyl)-4-methoxy-3-pyridinyl)-N-3-isoxazolyl-2-oxo-1,2-dihydro-6-quinolinesulfonamide]
24 | 5 | COc1cc(-c2cc(Cl)ccc2C)c(F)cc1-n1c(=O)ccc2cc(S(=O)(=O)Nc3ccon3)ccc21 [Example 743, 1-(5′-chloro-2-fluoro-5-methoxy-2′-methyl-4-biphenylyl)-N-3-isoxazolyl-2-oxo-1,2-dihydro-6-quinolinesulfonamide]
25 | 330 | COc1nc(OC2CCCC2)c(Cl)cc1-n1c(=O)ccc2cc(S(=O)(=O)Nc3ccon3)ccc21 [Example 825, 1-(5-chloro-6-(cyclopentyloxy)-2-methoxy-3-pyridinyl)-N-3-isoxazolyl-2-oxo-1,2-dihydro-6-quinolinesulfonamide]

same assay, conditions: in-vitro Nav 1.7 PX data, Table 4

Row | IC50 [nM] | Structure (SMILES)
26 | 159 | COc1cc(-c2ccc(Cl)cc2)c(F)cc1-n1c(=O)ccc2cc(S(=O)(=O)Nc3ccc(F)cn3)ccc21 (atropisomer, axis not shown; (P)) [Example 1163, (P)-1-(4′-chloro-2-fluoro-5-methoxy-4-biphenylyl)-N-(5-fluoro-2-pyridinyl)-2-oxo-1,2-dihydro-6-quinolinesulfonamide]

same assay, conditions: in-vitro PatchXpress (PX)

Row | IC50 [nM] | Structure (SMILES)
27 | 3150 | COc1cc(-c2ccc(C)c(Cl)c2)c(F)cc1-n1c(=O)ccc2cc(S(=O)(=O)Nc3ccon3)ccc21 (atropisomer, axis not shown; (M)) [Example 529, (M)-1-(3′-chloro-2-fluoro-5-methoxy-4′-methyl-4-biphenylyl)-N-3-isoxazolyl-2-oxo-1,2-dihydro-6-quinolinesulfonamide]
28 | 25 | COc1cc(-c2ccc(C)c(C#N)c2)c(F)cc1-n1c(=O)ccc2cc(S(=O)(=O)Nc3ccon3)ccc21 (atropisomer, axis not shown; (P)) [Example 524, (P)-1-(3′-cyano-2-fluoro-5-methoxy-4′-methyl-4-biphenylyl)-N-3-isoxazolyl-2-oxo-1,2-dihydro-6-quinolinesulfonamide]
29 | 8 | COc1cc(-c2cc(C)cc(Cl)c2)c(F)cc1-n1c(=O)ccc2cc(S(=O)(=O)Nc3ccon3)ccc21 (atropisomer, axis not shown; (P)) [Example 506, (P)-1-(3′-chloro-2-fluoro-5-methoxy-5′-methyl-4-biphenylyl)-N-3-isoxazolyl-2-oxo-1,2-dihydro-6-quinolinesulfonamide]
30 | 4 | COc1cc(Cl)cc(-c2cc(OC)c(-n3c(=O)ccc4cc(S(=O)(=O)Nc5ccon5)ccc43)cc2F)c1 (atropisomer, axis not shown; (P)) [Example 501, (P)-1-(3′-chloro-2-fluoro-5,5′-dimethoxy-4-biphenylyl)-N-3-isoxazolyl-2-oxo-1,2-dihydro-6-quinolinesulfonamide]
